Assay results taken from patent US8912121B2, “Herbicidal compositions comprising 4-amino-3-chloro-5-fluoro-6-(4-chloro-2-fluoro-3-methoxyphenyl)pyridine-2-carboxylic acid or a derivative thereof and certain PS II inhibitors” (Dow Agrosciences LLC, priority 2012, dated 2014).

What was measured:
[1] = system: AMARE (Amaranthus retroflexus, redroot pigweed); assay: Postemergence herbicidal activity of mixtures in cereal crops, greenhouse; assay type: in vivo, Amaranthus retroflexus L.
Protocol: Seeds of the desired test plant species were planted in Sun Gro MetroMix® 306 planting mixture, which typically has a pH of 6.0 to 6.8 and an organic matter content of about 30 percent, in plastic pots with a surface area of 103.2 square centimeters (cm^2). When required to ensure good germination and healthy plants, a fungicide treatment and/or other chemical or physical treatment was applied. The plants were grown for 7-36 days in a greenhouse with an approximate 14 hour photoperiod which was maintained at about 18° C. during the day and about 17° C. during the night. Nutrients and water were added on a regular basis and supplemental lighting was provided with overhead metal halide 1000-Watt lamps as necessary. The plants were employed for testing when they reached the second or third true leaf stage.
Treatments consisted of the benzyl ester of 4-amino-3-chloro-5-fluoro-6-(4-chloro-2-fluoro-3-methoxy-phenyl)pyridine-2-carboxylic acid (Compound A), formulated as an SC, a second cereal herbicide alone and then both in combination.
Other herbicidal components were applied on an active ingredient basis and included PSII-inhibiting herbicides.
Measured aliquots of benzyl ester of 4-amino-3-chloro-5-fluoro-6-(4-chloro-2-fluoro-3-methoxy-phenyl)pyridine-2-carboxylic acid (Compound A) were placed in 25 milliliter (mL) glass vials and diluted in a volume of 1.25% (v/v) Agri-Dex® crop oil concentrate to obtain stock solutions. Compound requirements are based upon a 12 mL application volume at a rate of 187 liters per hectare (L/ha). Spray solutions of the second cereal herbicide and experimental compound mixtures were prepared by adding the stock solutions to the appropriate amount of dilution solution to form 12 mL spray solution with active ingredients in two- and three-way combinations. Formulated compounds were applied to the plant material with an overhead Mandel track sprayer equipped with an 8002E nozzle calibrated to deliver 187 L/ha over an application area of 0.503 square meters (m^2) at a spray height of 18 inches (46 cm) above average plant canopy. Control plants were sprayed in the same manner with the solvent blank.
The treated plants and control plants were placed in a greenhouse as described above and watered by sub-irrigation to prevent wash-off of the test compounds. After 20-22 days, the condition of the test plants as compared with that of the control plants was determined visually and scored on a scale of 0 to 100 percent where 0 corresponds to no injury and 100 corresponds to complete kill.
Colby's equation was used to determine the herbicidal effects expected from the mixtures (Colby, S. R. 1967. Calculation of the synergistic and antagonistic response of herbicide combinations. Weeds 15:20-22). […]

[2] = system: IPOHE (Ipomoea hederacea, ivyleaf morningglory); assay: Pre-emergence soil-applied mixtures, greenhouse; assay type: in vivo, Ipomoea hederacea (L.) Jacq.
Text: Seeds or nutlets of the desired test plant species were planted in a soil matrix prepared by mixing a loam soil (32 percent silt, 23 percent clay, and 45 percent sand, with a pH of about 6.5 and an organic matter content of about 1.9 percent) and calcareous grit in an 80 to 20 ratio. The soil matrix was contained in plastic pots with a volume of 1 quart and a surface area of 83.6 square centimeters (cm^2).
Treatments consisted of the benzyl ester of 4-amino-3-chloro-5-fluoro-6-(4-chloro-2-fluoro-3-methoxy-phenyl)pyridine-2-carboxylic acid (compound A) formulated as an SC (suspension concentrate) and various herbicidal components alone and in combination. Forms of compound A were applied on an acid equivalent basis.
Other herbicidal components were applied on an acid equivalent or active ingredient basis and included the PSII-inhibiting herbicides, atrazine formulated as Atrazine® 90WDG, metribuzin formulated as Metribuzin 75DF, simazine formulated as Princep Caliber 90, tebuthiuron formulated as Spike 80DF, cyanazine (technical grade material), hexazinone (technical grade material), linuron (technical grade material), terbuthylazine (technical grade material), and diuron formulated as Diuron 4L.
Treatment requirements were calculated based upon the rates being tested, the concentration of active ingredient or acid equivalent in the formulation, and a 12 mL application volume at a rate of 187 L/ha.
For treatments comprised of formulated compounds, measured amounts of compounds were placed individually in 25 mL glass vials and diluted in a volume of 1.25% (v/v) Agri-Dex® crop oil concentrate (COC) to obtain 12× stock solutions. […] Application solutions were prepared by adding an appropriate amount of each stock solution (e.g., 1 mL) and diluted to the appropriate final concentrations with the addition of 10 mL of an aqueous mixture of 1.25% (v/v) COC so that the final spray solutions contained 1.25% (v/v) COC.
For treatments comprised of technical compounds, weighed amounts can be placed individually in 25 mL glass vials and dissolved in a volume of 97:3 (v/v) acetone/DMSO to obtain 12× stock solutions. […]
For treatments comprised of formulated and technical compounds, weighed amounts of the technical materials can be placed individually in 25 mL glass vials and dissolved in a volume of 97:3 (v/v) acetone/DMSO to obtain 12× stock solutions, and measured amounts of the formulated compounds can be placed individually in 25 mL glass vials and diluted in a volume of 1.5% (v/v) COC or water to obtain 12× stock solutions. […]

## COc1c(Cl)ccc(-c2nc(C(=O)OCc3ccccc3)c(Cl)c(N)c2F)c1F [Compound A Benzyl Ester, benzyl ester of 4-amino-3-chloro-5-fluoro-6-(4-chloro-2-fluoro-3-methoxy-phenyl)pyridine-2-carboxylic acid]
[1]; Compound A Benzyl Ester 2.5 g ai/ha
  Visual Weed Control (%) - 21 DAA AMARE Obs: 20%
[1]; Compound A Benzyl Ester 5 g ai/ha
  Visual Weed Control (%) - 21 DAA AMARE Obs: 38%
[2]; Compound A Benzyl Ester 16 g ae/ha
  Visual Weed Control (%) - 33 DAA IPOHE Obs: 0%
[2]; Compound A Benzyl Ester 32 g ae/ha
  Visual Weed Control (%) - 33 DAA IPOHE Obs: 5%
